Test: Water solubility testing (solubility time in water)
Assay type: physicochemical
Conditions: 10 mg sample in 240 mL water, magnetic stirring
Protocol: Water solubility testing was performed for Compositions C, D1, D2, and E described in Examples 3, 4, and 6. Each composition was tested at temperatures of 22° C. (tap water) and 10° C. (iced tap water). For each test, 240 mL of water at the target temperature (22° C. or 10° C.) was added to a beaker and a magnetic stirrer used with medium agitation, creating a slight vortex. A 10 mg sample of the composition to be tested was added over a 1-2 second time period and allowed to mix. The time in seconds until no particulates were visually discernable (either suspended in solution or settled out) was recorded as the solubility time. The solubility of table sugar (i.e., granulated sucrose) was also tested according to the same procedure for comparison.
The following categories were used to assess solubility characteristics: <30 sec=excellent to good solubility, 1-3 min=fair solubility, 3-5 min=poor solubility, and >5 min=insoluble.

SMILES: OC[C@H]1O[C@@](CO)(O[C@H]2O[C@H](CO)[C@@H](O)[C@H](O)[C@H]2O)[C@@H](O)[C@@H]1O [Table sugar, sucrose]
- Solubility time (10° C. (iced tap water)): <60 s
- Solubility time (22° C. (tap water)): 22 s
